The target in this test is Lanosterol 14-alpha demethylase (Candida albicans) (UniProt P10613). Briefly: In vitro inhibition of Lanosterol 14-alpha demethylase (Candida albicans CY1005).
Lanosterol 14-alpha demethylase (Candida albicans), sequence (P10613 whole entry, looked up): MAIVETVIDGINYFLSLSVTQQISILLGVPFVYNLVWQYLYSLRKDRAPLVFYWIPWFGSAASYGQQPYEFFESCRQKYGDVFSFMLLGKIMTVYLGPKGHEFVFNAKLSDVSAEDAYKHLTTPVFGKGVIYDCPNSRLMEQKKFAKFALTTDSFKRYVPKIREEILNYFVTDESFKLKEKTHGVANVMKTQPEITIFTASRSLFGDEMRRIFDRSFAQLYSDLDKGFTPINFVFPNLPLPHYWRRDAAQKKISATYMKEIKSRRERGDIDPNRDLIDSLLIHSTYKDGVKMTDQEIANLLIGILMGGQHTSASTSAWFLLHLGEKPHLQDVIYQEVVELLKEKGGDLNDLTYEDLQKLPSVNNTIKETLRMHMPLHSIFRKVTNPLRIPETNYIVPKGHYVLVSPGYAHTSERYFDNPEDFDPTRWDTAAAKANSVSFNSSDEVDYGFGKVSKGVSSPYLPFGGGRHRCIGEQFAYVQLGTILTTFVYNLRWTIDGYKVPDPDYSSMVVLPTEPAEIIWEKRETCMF

What is called IC50 is the concentration that inhibits the measured activity by half. On to `CCCCCCC/C=C/C[C@@H]1OC[C@H](C)[C@H](OC)[C@H]1COC(=O)CN`, for which the IC50 stood at 225 nM.

Turning to `CCc1ccc(CC[C@@H]2CCC(C)(C)[C@H](OC)[C@H]2Cn2ccnc2)cc1`, half-maximal inhibition (IC50) was put at 90.3 nM.

In turn, `CC[C@@H](C)n1ncn(-c2ccc(N3CCN(c4ccc(OC[C@H]5CO[C@](Cn6cncn6)(c6ccc(Cl)cc6Cl)O5)cc4)CC3)cc2)c1=O` [ITRAZOLE] showed an IC50 of 85 nM.

(Values after BindingDB's records for doi:10.1016/S0960-894X(01)80190-6 (n/a, 1994).)
